Legend:
Format in all cases: biochemical
[1] = molecular target: T1, BsIMPDH (Bacillus subtilis IMPDH) (Bacillus subtilis, UniProt P21879); assay: IMPDH activity assay, guanine nucleotide titration (NADH fluorescence); conditions: for K i,app: 0.25 mM ATP present; for effect on the catalytic activity in vitro: nucleotide alone (no ATP); for IC50: read-out: Estimated IC50
T1 construct: Open reading frames of the different enzymes were amplified by PCR using genomic DNA as template; 8xHis (N, cleaved yes); made in house; host or cells: E. coli BL21 (DE3)
T1 sequence (P21879 whole entry): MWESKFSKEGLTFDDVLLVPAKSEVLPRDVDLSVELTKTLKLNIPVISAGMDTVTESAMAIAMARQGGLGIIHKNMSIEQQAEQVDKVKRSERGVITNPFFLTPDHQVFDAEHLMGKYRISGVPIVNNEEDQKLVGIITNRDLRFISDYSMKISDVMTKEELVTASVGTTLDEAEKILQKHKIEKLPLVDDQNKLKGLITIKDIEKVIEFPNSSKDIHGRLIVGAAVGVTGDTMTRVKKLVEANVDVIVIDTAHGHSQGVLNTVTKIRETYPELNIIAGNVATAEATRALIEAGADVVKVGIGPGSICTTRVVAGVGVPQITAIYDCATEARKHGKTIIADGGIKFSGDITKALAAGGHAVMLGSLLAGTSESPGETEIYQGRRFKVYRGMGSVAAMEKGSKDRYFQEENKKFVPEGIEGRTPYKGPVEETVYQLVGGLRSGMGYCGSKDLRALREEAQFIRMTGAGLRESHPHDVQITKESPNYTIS
Experimental: (§1) IMPDH activity was assayed using 384‐well microtiter plates by monitoring the appearance of NADH by fluorescence (λ exc = 340 nm and λ em = 460 nm, using a 10 nm slit window for both excitation and emission).
(§2) The total amount of MgCl2 was adjusted for each nucleotide concentration to keep 1 mM free Mg^2+ constant concentration, as previously described.[6] The experimental data were fitted to the Michaelis–Menten and allosteric sigmoidal equations using GraphPad Prism (GraphPad Software).

[2] = molecular target: T2, EcIMPDH (Escherichia coli IMPDH) (Escherichia coli, UniProt P0ADG7); assay: as above; conditions: for effect on the catalytic activity in vitro: nucleotide alone (no ATP); for effect in vitro on the activity: even at millimolar concentrations, in presence or absence of ATP
T2 construct: Open reading frames of the different enzymes were amplified by PCR using genomic DNA as template; 8xHis (N, cleaved yes); made in house; host or cells: E. coli BL21 (DE3)
T2 sequence (P0ADG7 whole entry): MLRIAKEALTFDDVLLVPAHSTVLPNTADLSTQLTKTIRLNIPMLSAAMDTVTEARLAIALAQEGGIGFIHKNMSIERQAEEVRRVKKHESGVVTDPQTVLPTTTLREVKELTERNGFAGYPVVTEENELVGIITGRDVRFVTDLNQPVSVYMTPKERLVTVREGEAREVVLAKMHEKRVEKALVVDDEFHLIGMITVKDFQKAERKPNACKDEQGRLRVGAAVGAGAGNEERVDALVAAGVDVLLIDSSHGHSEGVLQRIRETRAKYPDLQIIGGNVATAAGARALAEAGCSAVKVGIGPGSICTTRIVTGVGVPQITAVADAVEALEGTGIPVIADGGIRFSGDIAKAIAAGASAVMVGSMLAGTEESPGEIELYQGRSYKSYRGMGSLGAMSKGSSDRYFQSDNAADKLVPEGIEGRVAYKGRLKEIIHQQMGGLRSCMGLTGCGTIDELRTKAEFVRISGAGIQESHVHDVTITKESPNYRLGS
Experimental: as §1, §2

[3] = molecular target: T3, PaIMPDH (Pseudomonas aeruginosa IMPDH) (Pseudomonas aeruginosa, UniProt Q9HXM5); assay: as above; conditions: for effect on the catalytic activity in vitro: nucleotide alone (no ATP); for effect in vitro on the activity: even at millimolar concentrations, in presence or absence of ATP
T3 construct: Open reading frames of the different enzymes were amplified by PCR using genomic DNA as template; 8xHis (N, cleaved yes); made in house; host or cells: E. coli BL21 (DE3)
T3 sequence (Q9HXM5 1-489): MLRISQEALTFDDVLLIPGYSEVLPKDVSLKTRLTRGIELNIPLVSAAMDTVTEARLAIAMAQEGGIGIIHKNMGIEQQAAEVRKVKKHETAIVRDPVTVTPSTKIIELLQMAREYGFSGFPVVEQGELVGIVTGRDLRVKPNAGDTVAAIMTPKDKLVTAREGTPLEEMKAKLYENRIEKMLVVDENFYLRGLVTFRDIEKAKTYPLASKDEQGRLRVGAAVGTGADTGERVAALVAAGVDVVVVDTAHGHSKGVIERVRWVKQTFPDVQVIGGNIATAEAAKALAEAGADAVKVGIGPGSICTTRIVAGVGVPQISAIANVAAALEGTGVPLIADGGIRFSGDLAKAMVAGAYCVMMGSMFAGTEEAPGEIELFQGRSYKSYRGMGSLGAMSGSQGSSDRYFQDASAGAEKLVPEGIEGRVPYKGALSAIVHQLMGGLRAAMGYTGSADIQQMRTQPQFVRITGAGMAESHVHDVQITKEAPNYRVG
Experimental: as §1, §2

[4] = molecular target: StcIMPDH (Streptomyces coelicolor IMPDH) (Streptomyces coelicolor, UniProt Q9L0I7); assay: as above; conditions: for K i,app: 0.25 mM ATP present; for effect on the catalytic activity in vitro: nucleotide alone (no ATP)
Sequence of StcIMPDH (Streptomyces coelicolor IMPDH) (Q9L0I7 entry or part of it): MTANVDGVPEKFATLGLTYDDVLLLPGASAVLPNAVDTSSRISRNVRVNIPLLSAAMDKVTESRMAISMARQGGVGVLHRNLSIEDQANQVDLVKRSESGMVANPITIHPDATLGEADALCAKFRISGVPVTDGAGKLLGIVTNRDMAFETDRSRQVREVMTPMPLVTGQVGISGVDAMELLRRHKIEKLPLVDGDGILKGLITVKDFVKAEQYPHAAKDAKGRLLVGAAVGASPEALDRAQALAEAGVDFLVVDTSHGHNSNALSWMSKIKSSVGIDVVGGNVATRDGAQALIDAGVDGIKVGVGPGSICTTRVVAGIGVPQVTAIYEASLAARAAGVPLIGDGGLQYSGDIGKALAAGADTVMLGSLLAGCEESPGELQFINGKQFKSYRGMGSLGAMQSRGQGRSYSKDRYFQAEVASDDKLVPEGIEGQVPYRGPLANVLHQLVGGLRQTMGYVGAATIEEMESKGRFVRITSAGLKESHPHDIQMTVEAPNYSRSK
Experimental: as §1, §2

[5] = molecular target: T4, EcIMPDH (Escherichia coli, UniProt P0ADG7); assay: GTP titration curves at physiological ATP concentration (Km shift); conditions: read-out: GTP concentration needed to duplicate the Km value, constant 3 mM ATP, 0.5 mM NAD, 32°C
T4 construct: Open reading frames of the different enzymes were amplified by PCR using genomic DNA as template; 8xHis (N, cleaved yes); made in house; host or cells: E. coli BL21 (DE3)
T4 sequence (P0ADG7 whole entry): as the sequence (P0ADG7 whole entry) above
Experimental: as §1
(§3) 32 °C in buffer 100 mM Tr i s-HCl,pH8.0,100 mM KCl, 1 mM DTT, 1 mM free MgCl2, […]

[6] = molecular target: T5, PaIMPDH (Pseudomonas aeruginosa, UniProt Q9HXM5); assay: as above; conditions: read-out: GTP concentration required to duplicate the Km value, constant 3 mM ATP, 0.5 mM NAD, 32°C
T5 construct: Open reading frames of the different enzymes were amplified by PCR using genomic DNA as template; 8xHis (N, cleaved yes); made in house; host or cells: E. coli BL21 (DE3)
Experimental: as §1, §3

[7] = molecular target: T6, Helicobacter pylori IMPDH (HpIMPDH) (Helicobacter pylori, UniProt P56088); assay: Effects of guanine nucleotides on the catalytic activity of HpIMPDH in vitro; conditions: 0.25 mM ATP + 0.5 mM (p)ppGpp, 32°C (Figure S12)
T6 construct: Open reading frames of the different enzymes were amplified by PCR using genomic DNA as template; 8xHis (N, cleaved yes); made in house; host or cells: E. coli BL21 (DE3)
T6 sequence (P56088 1-481): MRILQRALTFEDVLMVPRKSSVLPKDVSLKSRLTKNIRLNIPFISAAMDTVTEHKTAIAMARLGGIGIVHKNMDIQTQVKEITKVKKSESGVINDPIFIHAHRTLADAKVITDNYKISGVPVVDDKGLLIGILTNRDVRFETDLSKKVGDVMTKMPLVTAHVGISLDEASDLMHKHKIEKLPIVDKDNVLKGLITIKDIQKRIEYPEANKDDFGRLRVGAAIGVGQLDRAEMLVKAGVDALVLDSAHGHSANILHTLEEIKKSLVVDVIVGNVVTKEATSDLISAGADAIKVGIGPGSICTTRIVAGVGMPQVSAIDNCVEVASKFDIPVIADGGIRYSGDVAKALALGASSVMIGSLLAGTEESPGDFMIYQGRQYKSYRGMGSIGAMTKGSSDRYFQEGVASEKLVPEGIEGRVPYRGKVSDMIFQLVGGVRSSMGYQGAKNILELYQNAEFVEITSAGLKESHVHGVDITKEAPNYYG
Experimental: as §1
Supplemental Figure 12. Effects of guanine nucleotides on the catalytic activity of HpIMPDH in vitro.Normalized initialvelocity (V0) values calculated as the V0 in the absence of nucleotides divided by the corresponding values inthe presence of the indicated ones. The experiment was performed at 32 °C in buffer 100 mM Tr i s-HCl, pH 8.0, 100 mM KCl, 1 mM DTT, 1 mM free MgCl2, 50 nM enzyme, 0.5 mM NAD+ […]
Nucleotide concentrations were (from left to right): 0.5 mM
The Vo value used for normalization was 6.83 ± 0.1 nM/sec.
(1 picture or pasted object on this page, not shown here)

| Molecule | K i,app ([1]; BsIMPDH) | effect on the catalytic activity in vitro ([1]; BsIMPDH) | effect on the catalytic activity in vitro [2] | effect on the catalytic activity in vitro [3] | K i,app ([4]; StcIMPDH) | effect on the catalytic activity in vitro ([4]; StcIMPDH) | GTP concentration doubling Km [5] [mM] | GTP concentration doubling Km [6] [µM] | IC50 [1] [µM] | effect in vitro on the activity [2] | effect in vitro on the activity [3] | IC50 [4] [nM] | inhibition of catalytic activity (potency range) ([1]; BsIMPDH, combined with ATP) | inhibition of catalytic activity (potency range) ([4]; StcIMPDH, combined with ATP) | effect on catalytic activity of HpIMPDH [7] | K i,app ([2]; 0.25 mM ATP present) | K i,app ([3]; 0.25 mM ATP present) |
| --- | --- | --- | --- | --- | --- | --- | --- | --- | --- | --- | --- | --- | --- | --- | --- | --- | --- |
| Nc1nc2c(ncn2[C@@H]2O[C@H](COP(=O)(O)OP(=O)(O)OP(=O)(O)O)[C@@H](O)[C@H]2O)c(=O)[nH]1 [GTP] | millimolar range | did not have a significant effect | did not have a significant effect | did not have a significant effect | millimolar range | did not have a significant effect | 1.3 | 800 | – | – | – | – | – | – | – | – | – |
| Nc1nc2c(ncn2[C@@H]2O[C@H](COP(=O)(O)OP(=O)(O)OP(=O)(O)O)[C@@H](OP(=O)(O)OP(=O)(O)O)[C@H]2O)c(=O)[nH]1 [pppGpp] | – | – | – | – | – | – | – | – | 11.4 ± 1.2 | no detectable effect | no detectable effect | 1400 ± 30 | – | – | – | – | – |
| Nc1nc2c(ncn2[C@@H]2O[C@H](COP(=O)(O)OP(=O)(O)O)[C@@H](OP(=O)(O)OP(=O)(O)O)[C@H]2O)c(=O)[nH]1 [ppGpp] | – | no significant effect | no significant effect | no significant effect | – | no significant effect | – | – | 8.9 ± 0.4 | no detectable effect | no detectable effect | 2000 ± 30 | low micromolar range | low micromolar range | – | – | – |
| (p)ppGpp | – | – | – | – | – | – | – | – | – | – | – | – | – | – | allosteric inhibition | – | – |
| Nc1nc2c(ncn2[C@@H]2O[C@H](COP(=O)(O)OP(=O)(O)O)[C@@H](O)[C@H]2O)c(=O)[nH]1 [GDP] | millimolar range | did not have a significant effect | did not have a significant effect | did not have a significant effect | millimolar range | did not have a significant effect | – | – | – | – | – | – | – | – | – | mid‐micromolar range | mid‐micromolar range |
